Experimental data: BindingDB's records for doi:10.1021/jm00349a003 (1982)

Biological target: Dihydrofolate reductase (Lacticaseibacillus casei, UniProt P00381)
Test: Inhibitory activity against dihydrofolate reductase (DHFR) from Lactobacillus casei (expressed as log 1/Kiapp)

Dihydrofolate reductase, sequence (P00381 whole entry): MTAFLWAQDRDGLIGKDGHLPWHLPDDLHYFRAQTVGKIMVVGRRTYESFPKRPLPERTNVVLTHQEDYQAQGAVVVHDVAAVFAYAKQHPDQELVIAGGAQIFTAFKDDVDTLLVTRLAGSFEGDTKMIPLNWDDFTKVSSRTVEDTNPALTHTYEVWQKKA

Structure (SMILES)	Ki
Nc1ncc(Cc2cc(O)cc(O)c2)c(N)n1	417000 nM
Nc1ncc(Cc2ccccc2)c(N)n1	6310 nM
COCCOc1cccc(Cc2cnc(N)nc2N)c1	759 nM
Nc1ncc(Cc2ccc(O)c(O)c2)c(N)n1	1440 nM
COCCOc1ccc(Cc2cnc(N)nc2N)cc1OCCOC	309 nM
CCCCCCOc1ccc(Cc2cnc(N)nc2N)cc1	1860 nM
Cc1cccc(Cc2cnc(N)nc2N)c1	1660 nM
Nc1ncc(Cc2cccc(F)c2)c(N)n1	4170 nM
Nc1ncc(Cc2ccc([N+](=O)[O-])cc2)c(N)n1	1000 nM
Nc1ncc(Cc2cccc(Br)c2)c(N)n1	589 nM
Nc1ncc(Cc2ccc(F)cc2)c(N)n1	2140 nM
Nc1ncc(Cc2cccc(Cl)c2)c(N)n1	1260 nM
Nc1ncc(Cc2ccc(Cl)cc2)c(N)n1	646 nM
Nc1ncc(Cc2cccc(C(F)(F)F)c2)c(N)n1	692 nM
COc1ccc(Cc2cnc(N)nc2N)cc1C(F)(F)F	50 nM
Nc1ccc(Cc2cnc(N)nc2N)cc1	3390 nM
Nc1ncc(Cc2cc(CO)cc(CO)c2)c(N)n1	1860 nM
Nc1ncc(Cc2cccc(CO)c2)c(N)n1	2140 nM

Structure (SMILES)	Ki
CS(=O)(=O)Oc1cccc(Cc2cnc(N)nc2N)c1	1200 nM
COCCOc1ccc(Cc2cnc(N)nc2N)cc1	891 nM
CN(C)c1ccc(Cc2cnc(N)nc2N)cc1	676 nM
Nc1ncc(Cc2ccc(OC(F)(F)F)cc2)c(N)n1	501 nM
CCCCOCc1cccc(Cc2cnc(N)nc2N)c1	3240 nM
CC(=O)Nc1ccc(Cc2cnc(N)nc2N)cc1	891 nM
NC(=O)COc1cccc(Cc2cnc(N)nc2N)c1	1100 nM
Nc1ncc(Cc2cccc(I)c2)c(N)n1	214 nM
COCc1cccc(Cc2cnc(N)nc2N)c1	2290 nM
Nc1ncc(Cc2ccc(Br)cc2)c(N)n1	617 nM
Cc1ccc(Cc2cnc(N)nc2N)cc1	1480 nM
CC(=O)Nc1ccc(Cc2cnc(N)nc2N)cc1[N+](=O)[O-]	1000 nM
CCCCOc1ccc(Cc2cnc(N)nc2N)cc1	427 nM
Nc1ncc(Cc2cccc(O)c2)c(N)n1 [3-(2,4-Diamino-pyrimidin-5-ylmethyl)-phenol]	1510 nM
CCCCCCCOc1ccc(Cc2cnc(N)nc2N)cc1 [5-(4-Heptyloxy-benzyl)-pyrimidine-2,4-diamine]	4370 nM
COCCOc1c(OC)cc(Cc2cnc(N)nc2N)cc1OC [5-[3,5-Dimethoxy-4-(2-methoxy-ethoxy)-benzyl]-pyrimidine-2,4-diamine]	550 nM
COc1ccc(Cc2cnc(N)nc2N)cc1OC [Diaveridine]	120 nM
